By IC50 is commonly meant the concentration needed to halve the response being measured. Higher therefore signals a need for much substance. The term Kd denotes the free concentration of one partner at which half of the binding sites on the other are occupied at equilibrium, for simple one-to-one binding.

Experimental findings from US9340532B2, “Methods and compositions for inhibiting CNKSR1” (PHUSIS THERAPEUTICS, INC., priority 2012, dated 2016) are described below.

In assay [1] the test system is H1975 (KRAS wildtype cell line). The assay can be described thus: Proliferation Assay H1975. The following applies: Homo sapiens, NCI-H1975, n = 1. It is filed as cell-based. In short, it runs like this: (§1)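 Cells plated 2000 per well, allowed 24 h to attach, then exposed 72 h to agents (0-100 μM for isogenic lines; 0.01 to 50 μM for the RPMI 1640/10% FBS-cultured 30-line NSCLC panel). MTS read at 490 nm after 2 h, normalized to no-cell and no-drug controls; IC50 from curve fitting.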

A further assay has as its target T1, CNK1 PH-domain (CNKSR1) (Homo sapiens, UniProt Q969H4).
T1 construct: The PH-domain His-fusion proteins (CNK1 and AKT1) were expressed and immobilized on a NTA chip; made in house
T1 sequence (Q969H4 403-502 limits assumed): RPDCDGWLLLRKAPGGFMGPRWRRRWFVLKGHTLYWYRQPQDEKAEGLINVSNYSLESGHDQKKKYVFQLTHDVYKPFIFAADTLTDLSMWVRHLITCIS
Briefly: SPR binding assay (Biacore T100), CNK1 PH-domain. Summed up: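 His-tagged CNK1 PH-domain was captured on an NTA chip to ≤10,000 RU. Small-molecule analytes were injected at 50 μM to 0.010 μM at 30 μL/min, with 1-5% (v/v) DMSO in samples and running buffer. Binding was measured by surface plasmon resonance.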
For orientation: SPR reads the build-up and loss of mass on a sensor chip optically.

In assay [2] the test system is A549 (KRAS mutant cell line). Briefly: Proliferation Assay A549. In kind it is cell-based. To be noted: Homo sapiens, N = 2 experiments. Summed up:
as §1

The target of the next assay is PLE. The assay can be described thus: SPR binding, PLE. To be noted: Table 8. The procedure:
A commercially available docking package, GOLD (GOLD [3.2], CCDC: Cambridge, UK, 2007) was used to evaluate the docking of compounds 1-7 into the binding pocket, see e.g. Table 5. Other docking was performed using modeling algorithms with state-of-the-art commercial drug discovery software (Schrodinger suite). GLIDE was chosen as the docking algorithm used to select and optimize compounds, providing a GlideScore as a rough estimate of binding affinity that was used to rank and select the best compounds. Additionally, ligand-based approaches provided an alternative to structure based drug discovery. Ligand-based virtual screening methodologies can take into account shape and electrostatics (like ROCS) and the pharmacophoric features (acceptor, donor, hydrophobic, aromatic, etc.) of its functional groups. Inositol tetraphosphate (IP4) binding to the PH-domain of CNKSR1 provided a good starting point for shape screening. Both structure-based and ligand-based approaches were used to find novel compounds (Table 7) and to refine and improve lead compounds (Tables 8, and 9). SPR interaction analyses for Compounds 1 through 7 were performed with a Biacore 2000, using Biacore2000 Control Software v3.2 and BIAevaluation v4.1 analysis software (Biacore) as described in Mol Cancer Ther 7:2621 (2008). […]

In a further assay the target is T2, AKT1 PH-domain (Homo sapiens, UniProt P31749).
T2 construct: The PH-domain His-fusion proteins (CNK1 and AKT1) were expressed and immobilized on a NTA chip; made in house
T2 sequence (P31749 5-108 limits assumed): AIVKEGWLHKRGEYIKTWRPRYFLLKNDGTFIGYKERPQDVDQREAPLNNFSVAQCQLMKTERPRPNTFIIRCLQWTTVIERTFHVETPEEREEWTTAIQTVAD
Briefly: SPR binding assay (Biacore T100), AKT1 PH-domain. To be noted: Table 8; read-out: AKT KD. Summed up:
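His-tagged AKT1 PH domain immobilized on NTA chip to ≤10,000 RU, Biacore T100. Small-molecule analytes injected at 50 μM to 0.010 μM, 30 μL/min, with 1-5% (v/v) DMSO in samples and running buffer.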

For assay [3], the system named is H226 (KRAS wildtype cell line). The assay can be described thus: Proliferation Assay H226. It is filed as cell-based. To be noted: Homo sapiens, NCI-H226, n = 1. In short, it runs like this:
as §1

Assay [4] deals with H1373 (KRAS mutant cell line). The assay can be described thus: Proliferation Assay H1373. It is filed as cell-based. The following applies: Homo sapiens, NCI-H1373, N = 2 experiments. Summed up:
as §1

With `CCOC(=O)/C=C/c1c(O)c(OC)cc(NS(=O)(=O)c2cccs2)c1SC` [Compound 103, ethyl (2E)-3-[2-hydroxy-3-methoxy-6-(methylsulfanyl)-5-(thiopliene-2-sulfonamido)phenyl]prop-2-enoate], the IC50 in assay [1] was more than 100 µM; in assay [2], 75 µM; in assay [3] it was more than 100 µM; in assay [4] it was more than 100 µM. Moreover, the dissociation constant Kd at CNK1 PH-domain (CNKSR1) (Table 8, read-out: CNK KD) was found to be 157 nM; at PLE, 300 µM; on AKT1 PH-domain, 330 µM. In addition, the “Surface Plasmon Resonance CNKSR1 binding (RU max)” value on CNK1 PH-domain (CNKSR1) (date 12 09 13) is on record as 2.635 RU * 100/Da. Besides, on CNK1 PH-domain (CNKSR1) (date 12 09 13), the “Surface Plasmon Resonance CNKSR1 stability (RU max post-injection)” value is given as 3.148 RU * 100/Da.
